The text below walks through data of patent publication US12264156B2, “Compounds and pharmaceutical compositions thereof for the treatment of diseases” (GALAPAGOS NV, priority 2018, dated 2025).

Usually EC50 stands for the concentration needed to bring the measured effect to its halfway point.

For assay [1], the system named is LPS-induced TNFα in monocyte-derived macrophages (MdM). Kind of assay: MdM assay: LPS-triggered TNFα (ELISA). It is filed as cell-based, human. The essentials: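 Human monocyte-derived macrophages from CD14+ bead-selected buffy-coat PBMCs, used on day 10, pre-treated with compound for 1 h at 37 °C (0.2% DMSO), then stimulated with 200 ng/mL LPS. Supernatant taken after 20 h for TNFα sandwich ELISA (IL-10 at 2 h).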

Assay [2] concerns LPS triggered IL-10 secretion in monocytes. Nature of the assay: Monocytes assay: LPS-triggered IL-10 (ELISA). It is filed as cell-based, human. To be noted: LPS 200 ng/mL, supernatant after 4 h, maximal fold change vs LPS only. The essentials:
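Human CD14+ monocytes, magnetically isolated from buffy-coat PBMCs, were seeded at 100 000 cells/well and preincubated with compound for 1 h at 37° C (0.2% DMSO). LPS was then added at a final 200 ng/mL for 4 h. Supernatant IL-10 was quantified by chemiluminescent sandwich ELISA against a standard curve.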
For orientation: In an ELISA, binding on a coated surface is turned into a signal by an enzyme label.

Where [3] appears, read: monocyte-derived macrophages, LPS 200 ng/mL, supernatant after 20 h, read-out: TNFα EC50.
The mark [4] stands for this setting: Homo sapiens, Macrophage, 20 h, monocyte-derived macrophages, LPS 200 ng/mL, supernatant after 20 h, read-out: TNFα EC50.

SMILES strings stand for the structures. Read-outs that look alike come from different tables or passages of the source.

Turning to `COc1cc(-c2cnc3cc(OCC(O)CN4CCOCC4)ccn23)cc(OC(F)F)c1C(=O)NC1CC1` (single isomer, unassigned) [Cpd 386, N-cyclopropyl-2-(difluoromethoxy)-4-[7-(2-hydroxy-3-morpholino-propoxy)imidazo[1,2-a]pyridin-3-yl]-6-methoxy-benzamide], the EC50 in assay [1] (setting [3]) is 100 to 1000 nM. In addition, the “IL-10 FCmax median” value in assay [2] was “+++ (>4.5)”. On the same counts, the results for `COc1cc(-c2cnc3cc(OCC(O)CN4CCOCC4)ccn23)cc(OC(F)F)c1C(=O)NC1CC1` (single isomer, unassigned) [Cpd 387, N-cyclopropyl-2-(difluoromethoxy)-4-[7-(2-hydroxy-3-morpholino-propoxy)imidazo[1,2-a]pyridin-3-yl]-6-methoxy-benzamide] are 0.1 to 100 nM and “+++ (>4.5)”. Consider `COc1cc(-c2cnc3cc(OCCN(C)C)ccn23)cc(OC(F)F)c1C(=O)NC1CC1` [Cpd 6, N-cyclopropyl-2-(difluoromethoxy)-4-[7-[2-(dimethylamino)ethoxy]imidazo[1,2-a]pyridin-3-yl]-6-methoxy-benzamide], for which, in assay [1] (setting [4]), the EC50 was in the range of 100 to 1000 nM. Moreover, the “IL-10 FCmax median” value in assay [2] is on record as “+++ (>4.5)”. `COc1cc(-c2cnc3cc(OC[C@H]4COCCO4)ccn23)cc2c1C(=O)N(CC(F)(F)F)CC2` [Cpd 86, 6-[7-[[(2R)-1,4-dioxan-2-yl]methoxy]imidazo[1,2-a]pyridin-3-yl]-8-methoxy-2-(2,2,2-trifluoroethyl)-3,4-dihydroisoquinolin-1-one]: the EC50 in assay [1] (setting [4]) fell in the range of 100 to 1000 nM. For the same compound, the “IL-10 FCmax median” value in assay [2] is “+++ (>4.5)”.

As for `COc1cc(-c2cnc3cc(OCCN4CCOCC4)ccn23)cc2c1C(=O)N(CC(F)(F)F)CC2` [Cpd 88, 8-methoxy-6-[7-(2-morpholinoethoxy)imidazo [1,2-a]pyridin-3-yl]-2-(2,2,2-trifluoroethyl)-3,4-dihydroisoquinolin-1-one], the EC50 in assay [1] (Homo sapiens, Macrophage, 20 h, read-out: TNFα EC50 (nM)) was in the range of 100 to 1000 nM. Besides, in assay [2], the “IL-10 FCmax median” value is “+++ (>4.5)”. Turning to `COc1cc(-c2cnc3cc(OC(C)(C)CO)ccn23)cc(OC(F)F)c1C(=O)NC1CC1` [Cpd 209, N-cyclopropyl-2-(difluoromethoxy)-4-[7-(2-hydroxy-1,1-dimethyl-ethoxy)imidazo[1,2-a]pyridin-3-yl]-6-methoxy-benzamide], the concentration giving a half-maximal response (EC50) in assay [1] (setting [4]) was 1000 to 5000 nM. Besides, in assay [2], the “IL-10 FCmax median” value is “+ (≤1.5)”. In the case of `COc1cc(-c2cnc3cc(OCCN4CC(F)(F)C4)ccn23)cc2c1C(=O)N(CC(F)(F)F)CC2` [Cpd 244, 6-[7-[2-(3,3-difluoroazetidin-1-yl)ethoxy]imidazo[1,2-a]pyridin-3-yl]-8-methoxy-2-(2,2,2-trifluoroethyl)-3,4-dihydroisoquinolin-1-one], in assay [1] (setting [4]), the EC50 lay within 100 to 1000 nM. In addition, the “IL-10 FCmax median” value in assay [2] is recorded as “+++ (>4.5)”. On the same counts, the results for `COc1cc(-c2cnc3cc(OCCN4CCOC[C@@H]4C)ccn23)cc2c1C(=O)N(CC(F)(F)F)CC2` [Cpd 257, 8-methoxy-6-[7-[2-[(3S)-3-methylmorpholin-4-yl]ethoxy]imidazo[1,2-a]pyridin-3-yl]-2-(2,2,2-trifluoroethyl)-3,4-dihydroisoquinolin-1-one] are 100 to 1000 nM and “+++ (>4.5)”.

For `COc1cc(-c2cnc3cc(OCCCN4CC(O)C4)ccn23)cc(OC(F)F)c1C(=O)NC1CC1` [Cpd 286, N-cyclopropyl-2-(difluoromethoxy)-4-[7-[3-(3-hydroxyazetidin-1-yl)propoxy]imidazo[1,2-a]pyridin-3-yl]-6-methoxy-benzamide], the EC50 in assay [1] (setting [4]) was in the range of 1000 to 5000 nM. Moreover, the “IL-10 FCmax median” value in assay [2] was “++ (>1.5-4.5)”.

With `COc1cc(-c2cnc3cc(OCC(O)CN4CCCCC4)ccn23)cc(OC(F)F)c1C(=O)NC1CC1` (stereo not shown) [Cpd 321, N-cyclopropyl-2-(difluoromethoxy)-4-[7-[2-hydroxy-3-(1-piperidyl)propoxy]imidazo [1,2-a]pyridin-3-yl]-6-methoxy-benzamide], the EC50 in assay [1] (setting [4]) fell in the range of 0.1 to 100 nM. In addition, the “IL-10 FCmax median” value in assay [2] is “+++ (>4.5)”. Turning to `COc1cc(-c2cnc3cc(OCCCN4CCC5(CC4)CNC(=O)O5)ccn23)cc(OC(F)F)c1C(=O)NC1CC1` [Cpd 324, N-cyclopropyl-2-(difluoromethoxy)-6-methoxy-4-[7-[3-(2-oxo-1-oxa-3,8-diazaspiro[4.5]decan-8-yl)propoxy]imidazo[1,2-a]pyridin-3-yl]benzamide], the EC50 in assay [1] (setting [4]) fell in the range of 100 to 1000 nM. In addition, in assay [2], the “IL-10 FCmax median” value was “++ (>1.5-4.5)”. Taken in the same sequence, the figures for `COc1cc(-c2cnc3cc(OCC(O)CN4CCOCC4)ccn23)cc(OC(F)F)c1C(=O)NC1CC1` (stereo not shown) [Cpd 330, N-cyclopropyl-2-(difluoromethoxy)-4-[7-(2-hydroxy-3-morpholino-propoxy)imidazo[1,2-a]pyridin-3-yl]-6-methoxy-benzamide] were 0.1 to 100 nM and “+++ (>4.5)”.

As for `COc1cc(-c2cnc3cc(OCCCN4CCS(=O)(=O)CC4)ccn23)cc(OC(F)F)c1C(=O)NC1CC1` [Cpd 331, N-cyclopropyl-2-(difluoromethoxy)-4-[7-[3-(1,1-dioxo-1,4-thiazinan-4-yl)propoxy]imidazo[1,2-a]pyridin-3-yl]-6-methoxy-benzamide], in assay [1] (setting [4]), the EC50 fell in the range of 100 to 1000 nM. Further, in assay [2], the “IL-10 FCmax median” value is recorded as “+++ (>4.5)”.

As for `CCOC(=O)C1(F)CCN(CCCOc2ccn3c(-c4cc(OC)c(C(=O)NC5CC5)c(OC(F)F)c4)cnc3c2)CC1` [Cpd 363, ethyl 1-[3-[3-[4-(cyclopropylcarbamoyl)-3-(difluoromethoxy)-5-methoxy-phenyl]imidazo[1,2-a]pyridin-7-yl]oxypropyl]-4-fluoro-piperidine-4-carboxylate], the EC50 in assay [1] (setting [4]) was 0.1 to 100 nM. Further, in assay [2], the “IL-10 FCmax median” value is “+++ (>4.5)”. On the same counts, the results for `COc1cc(-c2cnc3cc(OCCN4CCN(C)CC4)ccn23)cc(OC(F)F)c1C(=O)NC1CC1` [compound 9, N-cyclopropyl-2-(difluoromethoxy)-6-methoxy-4-[7-[2-(4-methylpiperazin-1-yl)ethoxy]imidazo[1,2-a]pyridin-3-yl]benzamide] are 100 to 1000 nM and “+++ (>4.5)”. For the compound `CNc1cc(-c2cnc3cc(OCCN(C)C)ccn23)cc2c1C(=O)N(CC(F)(F)F)CC2` [compound 167, 6-[7-[2-(dimethylamino)ethoxy]imidazo[1,2-a]pyridin-3-yl]-8-(methylamino)-2-(2,2,2-trifluoroethyl)-3,4-dihydroisoquinolin-1-one], the EC50 in assay [1] (setting [4]) was greater than 5000 nM. As for `COc1cc(-c2cnc3cc(OC[C@H]4CN(C)CCO4)ccn23)cc2c1C(=O)N(CC(F)(F)F)CC2` [compound 190, 8-methoxy-6-[7-[[(2R)-4-methylmorpholin-2-yl]methoxy]imidazo[1,2-a]pyridin-3-yl]-2-(2,2,2-trifluoroethyl)-3,4-dihydro isoquinolin-1-one], the EC50 in assay [1] (setting [4]) was in the range of 100 to 1000 nM. For the compound `COc1cc(-c2cnc3cc(OC[C@@H]4CN(C)CCO4)ccn23)cc2c1C(=O)N(CC(F)(F)F)CC2` [compound 191, 8-methoxy-6-[7-[[(2S)-4-methylmorpholin-2-yl]methoxy]imidazo [1,2-a]pyridin-3-yl]-2-(2,2,2-trifluoroethyl)-3,4-dihydroisoquinolin-1-one], in assay [1] (setting [4]), the EC50 lay in the range of 100 to 1000 nM.

`COc1cc(-c2cnc3cc(OCCN4C[C@@H]5C[C@H]4CO5)ccn23)cc(OC(F)F)c1C(=O)NC1CC1` [compound 206, N-cyclopropyl-2-(difluoromethoxy)-6-methoxy-4-[7-[2-[(1S,4S)-2-oxa-5-azabicyclo[2.2.1]heptan-5-yl]ethoxy]imidazo[1,2-a]pyridin-3-yl]benzamide]: the EC50 in assay [1] (setting [4]) is 100 to 1000 nM.
